≈ marks a conversion by molar mass, not a printed value.

Data on three molecules can be found in US5444087A, “Manumycin compounds” (Bristol-Myers Squibb Company, priority 1993, dated 1995).

In data set [1] the test system is Staphylococcus aureus A9537. The experiment in a line: MIC by broth dilution assay, S. aureus A9537. Particulars: serial broth dilution, nutrient broth. Type of data set: cell-based.
In data set [2] the test system is Staphylococcus aureus A9606. Briefly: MIC by broth dilution assay, S. aureus A9606. The settings on record: serial broth dilution, nutrient broth. Type of data set: cell-based. (In general: Broth dilution looks for growth in wells or tubes with falling amounts of substance.)
Data set [3] deals with Staphylococcus epidermidis A24548. The experiment in a line: MIC by broth dilution assay, S. epidermidis A24548. It is filed as cell-based. Particulars: serial broth dilution, nutrient broth.
Data set [4] deals with Bacillus subtilis A9506. The experiment in a line: MIC by broth dilution assay, B. subtilis A9506. Type of data set: cell-based. The settings on record: serial broth dilution, nutrient broth.
For data set [5], the system named is Salmonella typhimurium A27908. Briefly: MIC by broth dilution assay, S. typhimurium A27908. It is filed as cell-based. Particulars: Salmonella enterica, serial broth dilution, nutrient broth.
Data set [6] concerns Micrococcus luteus A9852. Briefly: MIC by broth dilution assay, M. luteus A9852. Type of data set: cell-based. The settings on record: serial broth dilution, nutrient broth.
The test system of data set [7] is M. luteus A21349. Briefly: MIC by broth dilution assay, M. luteus A21349. It is filed as cell-based. Particulars: Micrococcus luteus, serial broth dilution, nutrient broth.
Data set [8] deals with Escherichia coli SGB888. Briefly: MIC by broth dilution assay, E. coli SGB888. The settings on record: serial broth dilution, nutrient broth. Type of data set: cell-based.
Data set [9] has as its system Proteus mirabilis A9900. The experiment in a line: MIC by broth dilution assay, P. mirabilis A9900. It is filed as cell-based. Particulars: serial broth dilution, nutrient broth.
The subject of data set [10] is Klebsiella pnneumoniae A9664. The experiment in a line: MIC by broth dilution assay, K. pneumoniae A9664. It is filed as cell-based. Particulars: serial broth dilution, nutrient broth.
Data set [11] concerns Enterobacter cloacae A9656. The experiment in a line: MIC by broth dilution assay, E. cloacae A9656. Type of data set: cell-based. Particulars: serial broth dilution, nutrient broth.
In data set [12] the test system is Pseudomonas aeruginosa A9843. The experiment in a line: MIC by broth dilution assay, P. aeruginosa A9843. It is filed as cell-based. Particulars: serial broth dilution, nutrient broth.
The target in data set [13] is farnesylation of Ras protein p21 (protein-cysteine farnesyltransferase). Briefly: Inhibition of farnesylation of Ras protein p21 (assay of Manne et al.). Type of data set: biochemical. Particulars: assay described by Manne et al. (1990); read-out: IC50 value in inhibiting the farnesylation of Ras protein p21.
Data set [14] can be described thus: Solubility. It is filed as physicochemical.

Consider `CC(C)CC/C=C/C=C/C=C/C(=O)NC1=CC(O)(/C=C/C=C/C=C/C(=O)NC2=C(O)CCC2=O)C2OC2C1=O` (stereo not drawn) [Manumycin C, 2,4,6-heptatrienenamide, 7-isopentyl-N-[5-hydroxy-5-[7-[2-hydroxy-5-oxo-1-cyclopenten-1-yl-amino]-7-oxo-1,3,5-heptatrienyl]-2-oxo-7-oxabicyclo[4.1.0]hept-3-en-yl]-, (all-E)-], for which the minimal inhibitory concentration (MIC) came to 2 µg/mL (≈ 3.74 µM) in data set [1]; 4 µg/mL (≈ 7.48 µM) in data set [2]; 2 µg/mL (≈ 3.74 µM) in [3]; 1 µg/mL (≈ 1.87 µM) in data set [4]; 2 µg/mL (≈ 3.74 µM) in data set [5]; 8 µg/mL (≈ 15 µM) in [6]. Also, the MIC in data set [7] worked out at 4 µg/mL (≈ 7.48 µM); in data set [8] it was 0.32 µg/mL (≈ 0.599 µM); in data set [9], 128 µg/mL (≈ 239 µM); in data set [10] it was 128 µg/mL (≈ 239 µM); in data set [11], 128 µg/mL (≈ 239 µM); in data set [12] it was 64 µg/mL (≈ 120 µM). The IC50 in [13] was 100 µM. The solubility in acetone result in data set [14] was “soluble”. Moreover, in [14], the solubility in acetonitrile entry is given as “soluble”. Besides, the “solubility in dimethyl sulfoxide” value in data set [14] was “soluble”. Also, in data set [14], the solubility in hexane entry is given as “insoluble”. In addition, the solubility in water result in data set [14] is “insoluble”.
`O=C(/C=C/C=C/C=C/C1CCCCC1)NC1=CC(O)(/C=C/C=C/C=C/C(=O)NC2=C(O)CCC2=O)C2OC2C1=O` (stereo not drawn) [Manumycin D, 2,4,6-heptatrienenamide, 7-cyclohexyl-N-[5-hydroxy-5-[7-[2-hydroxy-5-oxo-1-cyclopenten-1-yl-amino]-7-oxo-1,3,5-heptatrienyl]-2-oxo-7-oxabicyclo[4.1.0]hept-3-en-yl]-, (all-E)-]: the MIC in data set [1] is 1 µg/mL (≈ 1.83 µM); in data set [2] it was 2 µg/mL (≈ 3.66 µM); in [3], 1 µg/mL (≈ 1.83 µM); in data set [4] it was 0.5 µg/mL (≈ 0.915 µM); in data set [5], 0.5 µg/mL (≈ 0.915 µM); in data set [6], 2 µg/mL (≈ 3.66 µM). Further, the minimum inhibitory concentration (MIC) was found to be 1 µg/mL (≈ 1.83 µM) in [7]; 0.1 µg/mL (≈ 0.183 µM) in data set [8]; 128 µg/mL (≈ 234 µM) in data set [9]; 128 µg/mL (≈ 234 µM) in [10]; 128 µg/mL (≈ 234 µM) in [11]; 128 µg/mL (≈ 234 µM) in [12]. The concentration for half-maximal inhibition (IC50) in [13] amounted to 92.5 µM. For the same molecule, the solubility in acetone result in data set [14] is on record as “soluble”. In [14], the solubility in acetonitrile result is on record as “soluble”. Moreover, in data set [14], the “solubility in dimethyl sulfoxide” value is listed as “soluble”. In addition, the solubility in hexane result in data set [14] was “insoluble”. For the same molecule, in [14], the solubility in water entry is on record as “insoluble”.
`CC(C)/C=C/C=C/C=C/C(=O)NC1=CC(O)(/C=C/C=C/C=C/C(=O)NC2=C(O)CCC2=O)C2OC2C1=O` (stereo not drawn) [Manumycin E, 2,4,6-heptatrienenamide, 7-isopropyl-N-[5-hydroxy-5-[7-[2-hydroxy-5-oxo-1-cyclopenten-1-yl-amino]-7-oxo-1,3,5-heptatrienyl]-2-oxo-7-oxabicyclo[4.1.0]hept-3-en-yl]-, (all-E)-]: the MIC is 8 µg/mL (≈ 15.8 µM) in data set [1]; 8 µg/mL (≈ 15.8 µM) in data set [2]; 8 µg/mL (≈ 15.8 µM) in [3]; 8 µg/mL (≈ 15.8 µM) in [4]; 32 µg/mL (≈ 63.2 µM) in data set [5]; 16 µg/mL (≈ 31.6 µM) in data set [6]. Also, the MIC in data set [7] amounted to 16 µg/mL (≈ 31.6 µM); in data set [8] it was 2.5 µg/mL (≈ 4.94 µM); in [9], 128 µg/mL (≈ 253 µM); in data set [10], 128 µg/mL (≈ 253 µM); in [11], 128 µg/mL (≈ 253 µM); in data set [12], 128 µg/mL (≈ 253 µM). In addition, in data set [13], the half-inhibitory concentration (IC50) turned out to be 120 µM. Also, the solubility in acetone result in data set [14] was “soluble”. In data set [14], the solubility in acetonitrile result is “soluble”. Also, in [14], the “solubility in dimethyl sulfoxide” value was “soluble”. In [14], the solubility in hexane result was “insoluble”. For the same molecule, the solubility in water entry in data set [14] is given as “insoluble”.

In general, MIC refers to the smallest concentration in the dilution series that meets the test's criterion for growth inhibition. Higher therefore signals a less susceptible organism. By IC50 is commonly meant the point on the concentration scale where inhibition reaches its midpoint.
